Calls of active or inactive are those of the source. The calls are words filed in the database; no cut-off is given here.
What was measured:
[1] = test system: Heart; assay: Cardioprotective activity in Langendorff perfused Wistar rat heart model of ischemia-reperfusion injury model assessed as reduction of end diastolic pressure at 10 uM dosed during first 10 mins reflow; type: functional; parameters: scale not given: the % may be the effect or the level left
[2] = test system: Heart; assay: Cardioprotective activity in Langendorff perfused Wistar rat heart model of ischemia-reperfusion injury model assessed as increase left ventricular developed pressure at 10 uM dosed during first 10 mins reflow; type: functional
[3] = test system: HeLa; assay: Inhibition of F1F0-ATP synthase subunit C in human HeLa cells assessed as enzyme dimerization by measuring mitochondrial permeability transition at 1 uM by PLA based assay; type: cell-based
[4] = test system: HeLa; assay: Effect on basal mitochondrial membrane potential in human HeLa cells by TMRM dye based fluorescence assay; type: ADME, cell-based
[5] = test system: HeLa; assay: Effect on mitochondrial calcium uptake in human HeLa cells after 24 hrs by aequorin luminometric analysis; type: ADME, cell-based
[6] = test system: HeLa; assay: Cytotoxicity against human HeLa cells assessed as reduction in cell viability at 1 to 10 uM after 24 to 48 hrs by MTT assay; type: cell-based
[7] = test system: Heart; assay: Cardioprotective activity in Langendorff perfused Wistar rat heart model of ischemia-reperfusion injury model assessed as reduction of apoptosis at 10 uM dosed during first 10 mins reflow by TUNEL assay; type: functional
[8] = test system: HeLa; assay: Effect on mitochondrial morphology in human HeLa cells after 24 hrs by mtCherry staining based microscopic analysis; type: ADME, cell-based
[9] = test system: HeLa; assay: Cytotoxicity against human HeLa cells assessed as reduction in cell viability at 1 to 10 uM after 72 hrs by MTT assay; type: cell-based
[10] = test system: HeLa; assay: Inhibition of F1F0-ATP synthase subunit C in human HeLa cells assessed as reduction of ionomycin-induced Ca2+ mediated mPTP opening at 1 uM preincubated for 30 secs followed by ionomycin addition by calcein-cobalt based assay relative to control; type: cell-based
[11] = test system: HeLa; assay: Effect on number of mitochondria in human HeLa cells after 24 hrs by mtCherry staining based microscopic analysis; type: ADME, cell-based
[12] = test system: Heart; assay: Cardioprotective activity in Langendorff perfused Wistar rat heart model of ischemia-reperfusion injury model assessed as reduction of coronary perfusion pressure at 10 uM dosed during first 10 mins reflow; type: functional; parameters: scale not given: the % may be the effect or the level left
[13] = species: Mus musculus; assay: Inhibition of Inhibition of F1F0-ATP synthase subunit C in SV129 mouse liver mitochondria assessed as reduction of Ca2+ induced mPTP opening by measuring reduction in mitochondrial swelling at 1 uM measured after 10 mins relative to control
[14] = test system: HeLa; assay: Effect on network volume of mitochondria in human HeLa cells after 24 hrs by calcin staining based microscopic analysis; type: ADME, cell-based
[15] = test system: HeLa; assay: Reduction in mitochondrial ATP content in human HeLa cells expressing mitochondrially targeted Photinus pyralis luciferase at 1 uM in presence of 100 um histamine by luciferin-luciferase assay; type: ADME, cell-based
[16] = test system: HeLa; assay: Reduction in mitochondrial ATP content in human HeLa cells expressing mitochondrially targeted Photinus pyralis luciferase at 1 uM by luciferin-luciferase assay; type: ADME, cell-based
[17] = test system: HeLa; assay: Inhibition of F1F0-ATP synthase subunit C in human HeLa cells assessed as reduction of cytC release at 1 uM after 5 mins by immunoblot analysis; type: cell-based
[18] = test system: HeLa; assay: Inhibition of F1F0-ATP synthase subunit C in human HeLa cells assessed as reduction in apoptosis by TUNEL assay; type: cell-based
[19] = Drug uptake in human HeLa cells cytosolic fraction by HPLC-HRMS analysis; type: ADME, subcellular; conditions: cytosol
[20] = molecular target: ATP synthase F(1) complex subunit alpha, mitochondrial (Homo sapiens) (UniProt P25705); assay: Binding affinity of ATP5A in human HeLa cells assessed as melting temperature after 30 mins by cellular thermal shift assay; type: cell-based
[21] = species: Homo sapiens; assay: Binding affinity of F1F0-ATP synthase c subunit in isolated mitochondria of human HeLa cells after 30 mins by UPLC-XEVO-TQD analysis
[22] = Drug uptake in human HeLa cells mitochondrial fraction by HPLC-HRMS analysis; type: ADME, mitochondria, Mitochondria
[23] = test system: HeLa; assay: Binding affinity of F1F0-ATP synthase c subunit in human HeLa cells at 60 to 80 degC after 30 mins by cellular thermal shift assay; type: cell-based
[24] = Drug uptake in human HeLa cells endoplasmic reticulam fraction by HPLC-HRMS analysis; type: ADME, subcellular
[25] = Drug uptake in human HeLa cells mitochondrial fraction assessed as retention time by HPLC-HRMS analysis; type: ADME, mitochondria, Mitochondria

Sequence of ATP synthase F(1) complex subunit alpha, mitochondrial (Homo sapiens) (P25705 whole entry, one chain of several): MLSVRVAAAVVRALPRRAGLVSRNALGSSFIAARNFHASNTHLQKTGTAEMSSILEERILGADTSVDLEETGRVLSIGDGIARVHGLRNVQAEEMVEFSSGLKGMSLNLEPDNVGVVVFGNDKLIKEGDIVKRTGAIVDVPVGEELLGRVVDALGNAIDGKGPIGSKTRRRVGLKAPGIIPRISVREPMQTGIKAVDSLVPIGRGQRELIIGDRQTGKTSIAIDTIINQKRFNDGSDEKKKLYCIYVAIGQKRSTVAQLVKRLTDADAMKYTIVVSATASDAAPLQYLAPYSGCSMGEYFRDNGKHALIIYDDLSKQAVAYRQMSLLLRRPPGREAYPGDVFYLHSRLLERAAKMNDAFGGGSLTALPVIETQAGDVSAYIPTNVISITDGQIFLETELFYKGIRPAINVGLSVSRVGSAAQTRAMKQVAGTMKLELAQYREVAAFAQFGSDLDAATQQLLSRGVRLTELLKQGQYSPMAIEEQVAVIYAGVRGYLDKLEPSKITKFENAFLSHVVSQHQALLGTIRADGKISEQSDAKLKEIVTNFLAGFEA

**Q.** For `O=C1NCN(c2ccccc2)C12CCN(S(=O)(=O)c1ccc(Cl)s1)CC2`, which Activity [1] is on record?
**A.** Its Activity is 72%.

**Q.** And the Activity [2]?
**A.** Its Activity is 36.4%.

**Q.** What about the inhibition [3] of the same compound?
**A.** The inhibition was “Active”.

**Q.** And the Activity [4]?
**A.** Its Activity is “Non-Toxic”.

**Q.** What about the Activity [5] of the same compound?
**A.** The Activity was “Non-Toxic”.

**Q.** And the Activity [6]?
**A.** Its Activity is “Non-Toxic”.

**Q.** And the Activity [7]?
**A.** Its Activity is “Active”.

**Q.** What about the Activity [8] of the same compound?
**A.** Its Activity is “Non-Toxic”.

**Q.** What about the Activity [9] of the same compound?
**A.** Its Activity is “Toxic”.

**Q.** And the inhibition [10]?
**A.** The inhibition was 66.8%.

**Q.** And the Activity [11]?
**A.** The Activity was “Non-Toxic”.

**Q.** And the Activity [12]?
**A.** Its Activity is 17.5%.

**Q.** And the inhibition [13]?
**A.** Its inhibition is “Active”.

**Q.** What about the Activity [14] of the same compound?
**A.** The Activity was “Non-Toxic”.

**Q.** What about the Activity [15] of the same compound?
**A.** The Activity was “Non-Toxic”.

**Q.** And the Activity [16]?
**A.** Its Activity is “Non-Toxic”.

**Q.** And the inhibition [17]?
**A.** The inhibition was “Active”.

**Q.** And the inhibition [18]?
**A.** The inhibition was “Active”.

**Q.** For `O=C1N=CN(c2ccccc2)C12CCN(Cc1ccccc1)CC2`, which inhibition [10] is on record?
**A.** The inhibition was 41.4%.

**Q.** With `O=C1N=CN(c2ccc(Cl)cc2)C12CCN(Cc1ccccc1)CC2` as the compound, how does the Activity [4] read?
**A.** Its Activity is “Non-Toxic”.

**Q.** And the Activity [5]?
**A.** The Activity was “Non-Toxic”.

**Q.** What about the Activity [6] of the same compound?
**A.** The Activity was “Non-Toxic”.

**Q.** And the Activity [8]?
**A.** The Activity was “Non-Toxic”.

**Q.** What about the Activity [9] of the same compound?
**A.** Its Activity is “Toxic”.

**Q.** And the inhibition [10]?
**A.** Its inhibition is 57.4%.

**Q.** And the Activity [11]?
**A.** Its Activity is “Non-Toxic”.

**Q.** And the inhibition [13]?
**A.** Its inhibition is “Active”.

**Q.** And the Activity [14]?
**A.** The Activity was “Non-Toxic”.

**Q.** What about the Activity [15] of the same compound?
**A.** Its Activity is “Non-Toxic”.

**Q.** What about the Activity [16] of the same compound?
**A.** The Activity was “Toxic”.

**Q.** What about the inhibition [17] of the same compound?
**A.** The inhibition was “Active”.

**Q.** And the inhibition [18]?
**A.** Its inhibition is “Active”.

**Q.** With `O=C1NCN(c2ccc(F)cc2)C12CCN(S(=O)(=O)c1ccc(F)cc1)CC2` as the compound, how does the inhibition [10] read?
**A.** The inhibition was 9.1%.

**Q.** For `O=C(c1ccccc1)N1CCC2(CC1)C(=O)NCN2c1ccccc1`, which inhibition [10] is on record?
**A.** The inhibition was 43.9%.

**Q.** Which results are given for `O=C1NCN(c2cccc(C(F)(F)F)c2)C12CCN(Cc1ccccc1)CC2`?
**A.** inhibition [3]: Active; Activity [4]: Non-Toxic; Activity [5]: Non-Toxic; Activity [6]: Non-Toxic; Activity [8]: Non-Toxic; Activity [9]: Toxic; inhibition [10]: 65.5%; Activity [11]: Non-Toxic; inhibition [13]: Active; Activity [14]: Non-Toxic; Activity [15]: Non-Toxic; Activity [16]: Non-Toxic; inhibition [17]: Active; inhibition [18]: Active

**Q.** Which inhibition [10] does the source give for `O=C1N=CN(c2cccc(C(F)(F)F)c2)C12CCN(Cc1ccccc1)CC2` here?
**A.** Its inhibition is 32.1%.

**Q.** With `COc1ccc(N2CNC(=O)C23CCN(Cc2ccccc2)CC3)cc1` as the compound, how does the inhibition [10] read?
**A.** The inhibition was 26.2%.

**Q.** Which inhibition [10] does the source give for `O=C1NCN(c2ccccc2)C12CCN(Cc1ccccc1)CC2` here?
**A.** The inhibition was 36.8%.

**Q.** Which inhibition [10] does the source give for `O=C1NCN(c2ccccc2)C12CCN(S(=O)(=O)c1ccc(F)cc1)CC2` here?
**A.** The inhibition was 45.5%.

**Q.** With `CS(=O)(=O)N1CCC2(CC1)C(=O)NCN2c1ccccc1` as the compound, how does the inhibition [10] read?
**A.** Its inhibition is 47.5%.

**Q.** For `O=C(NC1CCCCC1)N1CCC2(CC1)C(=O)NCN2c1ccccc1`, which inhibition [10] is on record?
**A.** Its inhibition is 51.3%.

**Q.** With `Cc1ccc(N2CNC(=O)C23CCN(Cc2ccccc2)CC3)cc1` as the compound, how does the inhibition [10] read?
**A.** Its inhibition is 18.1%.

**Q.** Which inhibition [10] does the source give for `CC(=O)N1CCC2(CC1)C(=O)NCN2c1ccccc1` here?
**A.** The inhibition was 47.9%.

**Q.** With `CC(C)c1ccc(N2C=NC(=O)C23CCN(Cc2ccccc2)CC3)cc1` as the compound, how does the inhibition [10] read?
**A.** The inhibition was 6.5%.

**Q.** Which inhibition [10] does the source give for `O=C1NCN(c2ccc(F)cc2)C12CCN(Cc1ccccc1)CC2` here?
**A.** The inhibition was 42.9%.

**Q.** Which inhibition [10] does the source give for `CC(C)c1ccc(N2CNC(=O)C23CCN(Cc2ccccc2)CC3)cc1` here?
**A.** The inhibition was 20%.

**Q.** With `O=C(Nc1ccccc1)N1CCC2(CC1)C(=O)NCN2c1ccccc1` as the compound, how does the inhibition [10] read?
**A.** Its inhibition is “inactive”.

**Q.** With `O=C1NCN(c2ccc(F)cc2)C12CCN(S(=O)(=O)c1ccc(Cl)s1)CC2` as the compound, how does the inhibition [10] read?
**A.** The inhibition was 12.6%.

**Q.** For `O=C1NCN(c2ccccc2)C12CCN(C(=S)NC1CCCCC1)CC2`, which inhibition [10] is on record?
**A.** The inhibition was 33.6%.

**Q.** For `O=C1NCN(c2ccc(Cl)cc2)C12CCN(Cc1ccccc1)CC2`, which inhibition [10] is on record?
**A.** Its inhibition is 51.4%.

**Q.** Which Drug uptake [19] does the source give for `Cc1ccc(S(=O)(=O)N2CCC3(CC2)C(=O)NCN3c2ccccc2)cc1` here?
**A.** Its Drug uptake is “Not Active”.

**Q.** And the Activity [20]?
**A.** Its Activity is “inactive”.

**Q.** And the Activity [21]?
**A.** Its Activity is “Active”.

**Q.** What about the Drug uptake [22] of the same compound?
**A.** Its Drug uptake is “Active”.

**Q.** What about the inhibition [10] of the same compound?
**A.** The inhibition was 30.7 to 50%.

**Q.** And the inhibition [13]?
**A.** The inhibition was “Active”.

**Q.** And the Activity [23]?
**A.** The Activity was “Active”.

**Q.** What about the Drug uptake [24] of the same compound?
**A.** The Drug uptake was “Not Active”.

**Q.** What about the Retention_time [25] of the same compound?
**A.** Its Retention_time is 8.2 min.

**Q.** What about the Activity [15] of the same compound?
**A.** Its Activity is “Toxic”.

**Q.** And the Activity [16]?
**A.** The Activity was “Toxic”.

**Q.** For `COc1ccc(N2C=NC(=O)C23CCN(Cc2ccccc2)CC3)cc1`, which inhibition [10] is on record?
**A.** The inhibition was 43.8%.

**Q.** With `Cc1ccc(N2C=NC(=O)C23CCN(Cc2ccccc2)CC3)cc1` as the compound, how does the inhibition [10] read?
**A.** The inhibition was 18.7%.

**Q.** For `CCC1/C=C/C=C/C[C@H](C)[C@@H](O)[C@](C)(O)C(=O)[C@@H](C)[C@H](O)[C@@H](C)C(=O)[C@H](C)[C@@H](O)[C@H](C)/C=C/C(=O)OC2[C@@H](C)C(CC1)OC1(CC[C@@H](C)C(C[C@H](C)O)O1)[C@@H]2C` (stereo not given in full), which Drug uptake [19] is on record?
**A.** The Drug uptake was “Active”.

**Q.** What about the Drug uptake [22] of the same compound?
**A.** The Drug uptake was “Active”.

**Q.** What about the Drug uptake [24] of the same compound?
**A.** The Drug uptake was “Active”.

**Q.** For `O=C1N=CN(c2ccc(F)cc2)C12CCN(Cc1ccccc1)CC2`, which inhibition [10] is on record?
**A.** The inhibition was 28.8%.

From ChEMBL document CHEMBL4152345, “Discovery of Novel 1,3,8-Triazaspiro[4.5]decane Derivatives That Target the c Subunit of F1/FO-Adenosine Triphosphate (ATP) Synthase for the Treatment of Reperfusion Damage in Myocardial Infarction” (J Med Chem, 2018)
